Residues, ends and D or L forms follow the SMILES beside them. *: point of attachment. CH2CO2tBu = CC(C)(C)OC(=O)C*; Carboxymethyl = O=C(O)C*; Allyl = C=CC*; X1 = CCCCCCS*; SEt = CCS*

Data set [1] is described as follows: Stability of powders under high humidity (HPLC purity). Type of data set: physicochemical. The conditions noted are these: powder; for High humidity, Day 10 (purity): RH92.5%, 25° C., 10 days. The protocol: The powder samples of peptides (3)-(7) were placed under high humidity (RH92.5%, 25° C.) conditions for 10 days, and the purity changes of each sample were investigated by HPLC.

The test system of a further data set is NIH3T3 cells. Description: Cell proliferation experiment (MTT), NIH3T3. The conditions noted are these: 24 hours. Type of data set: cell-based, mouse. An excerpt: (§1) Human keratinocytes (HaCaT) were purchased from the Kunming Cell Bank of the Type Culture Collection Committee of the Chinese Academy of Sciences, and mouse skin fibroblasts (NIH3T3) were purchased from the Shanghai Cell Bank of the Type Culture Collection Committee of the Chinese Academy of Sciences.
(§2) • a) Take cells in good condition in exponential growth phase, add 0.25% trypsin digestion solution, digest to make adherent cells fall off, count 1-4×10^5 cells/mL, and make cell suspension; • b) Appropriately dilute 2000 cells/well of the cell suspension and inoculate it on a 96-well plate at 200 μL/well, and culture it in a constant temperature CO2 incubator for 24 hours. • c) Change the medium, add the sample to be tested, 20 μL/well, and incubate for 24 hours; • d) Add the MTT reagent into the 96-well plate, 20 μL/well, and react in the incubator for 4 hours; • e) Aspirate the supernatant, add DMSO, 150 μL/well, and shake on a plate shaker for 5 minutes; • f) After 5 minutes, use a microplate reader to read the reference OD values at 490 nm and 630 nm wavelengths, and calculate the cell viability:
(§3) MTT method is a method to detect cell survival and growth. The measured OD value is directly proportional to cell activity. The larger the OD value, the higher the cell activity.

The subject of data set [2] is HaCaT cells. Briefly: UVB light damage repair experiment (MTT), HaCaT. The format is cell-based, human. The conditions noted are these: UVB irradiated, 12.5-100 ppm, 24 hours. The protocol:
as §1
Take cells in good exponential growth phase, add 0.25% trypsin digestion solution, digest to make adherent cells fall off, count 1×10^5-4×10^5 cells/mL, and make cell suspension.
Cells were seeded into 96-well plates at 10,000 cells/well, and the UVB photodamage model was established when the cells reached about 80% confluent. […]
After 24 hours, add 22 μL of 5 mg/mL MTT to each well, place in an incubator and incubate for 4 hours, discard the original solution, and add 150 μL/well of DMSO. After 5 minutes, use a microplate reader to read the reference OD values at 490 nm and 630 nm wavelengths.
By establishing a UVB light-damaged cell model, administering 24 hours after ultraviolet light irradiation, and using the MTT method to detect cell proliferation activity, the ability of the peptide of the present invention to repair light-damaged cells was evaluated.

The test system of data set [3] is HaCaT cells. Description: Cell proliferation experiment (MTT), HaCaT. To be noted: 24 hours. The format is cell-based, human.
Description: as §1, §2, §3

Data set [4] has as its system HaCaT cells. Description: Scratch test (cell migration). Type of data set: cell-based, human. To be noted: 24 hours after scratch; peptides 100 ppm, EGF 50 U/mL; vs normal control group. On the procedure:
Human keratinocytes (HaCaT) were purchased from the Kunming Cell Bank of the Type Culture Collection Committee of the Chinese Academy of Sciences.
The cryopreserved HaCaT cells were cultured, subcultured to about 5 passages according to the ratio of 1:2, and the cells with better growth were selected as the experimental objects. Cells were seeded in a 12-well plate at a density of 200,000 cells/well, with 2 mL of cell suspension in each well. After the cells adhered to the wall, the medium was replaced with 0.5% to 1% fetal bovine serum to maintain the cells for 24 hours to synchronize them. change. Scratch with a sterilized pipette tip, wash off the dropped cells with PBS, add the sample to be tested, continue to incubate in a 37° C., 5% CO2 incubator, and place it under an optical microscope after 24 hours to analyze the wound healing area.
The cell scratch migration test can reflect the proliferation and repair ability of the cells.

Data set [5] in a line: Stability of aqueous solutions (HPLC purity over time). The format is physicochemical.
Description: (§4) In Example 29, the HPLC chromatographic separation conditions were as follows: • Chromatographic column: Octadecyl bonded silica gel as filler 4.6*250 mm, 5 m • Mobile phase A: Acetonitrile (containing 0.09% trifluoroacetic acid) • Mobile phase B: 0.1% trifluoroacetic acid • Diluent: water • Flow rate: 1.0 ml/min; • Column temperature: 35° C.; • Detection wavelength: 215 nm; • Injection volume: 10 μl; • Running time: 32 min • Gradient elution table:
(§5) The test solution: Take an appropriate amount of this product and add water to dissolve and dilute to make a solution containing 1 mg per 1 ml.
Data set [6] in a line: Stability of powders at 25° C. and 40° C. (HPLC purity over time).
Description: as §4, §5
Setting [7] is: 12.5 ppm-100 ppm, vs PBS blank control.

`CCC(C)C(NC(=O)CNC(=O)C(CCSC)NC(=O)C(CCCNC(=N)N)NC(=O)C(Cc1ccccc1)NC(=O)C1CCCN1C(=O)C(C)N)C(=O)NC(CSCC(=O)OC(C)(C)C)C(=O)NC(C(=O)NC(C(=O)NC(CC(N)=O)C(=O)O)C(C)O)C(C)O` (stereo not shown) [(4)] (H-APFRMGIC(CH2CO2tBu)TTN-OH; configuration not given here): in data set [1], the “Day 0 (purity)” value is 96.017% and the “High humidity, Day 10 (purity)” value turned out to be 93.962%.

For `CCSSCC(NC(=O)C(NC(=O)CNC(=O)C(CCSC)NC(=O)C(CCCNC(=N)N)NC(=O)C(Cc1ccccc1)NC(=O)C1CCCN1C(=O)C(C)N)C(C)CC)C(=O)NC(C(=O)NC(C(=O)NC(CC(N)=O)C(=O)O)C(C)O)C(C)O` (stereo not shown) [(5)] (H-APFRMGIC(SEt)TTN-OH; configuration not given here), in data set [1], the “Day 0 (purity)” value stood at 97.482% and the “High humidity, Day 10 (purity)” value is recorded as 94.603%.

`CCCCCCSSCC(NC(=O)C(NC(=O)CNC(=O)C(CCSC)NC(=O)C(CCCNC(=N)N)NC(=O)C(Cc1ccccc1)NC(=O)C1CCCN1C(=O)C(C)N)C(C)CC)C(=O)NC(C(=O)NC(C(=O)NC(CC(N)=O)C(=O)O)C(C)O)C(C)O` (stereo not shown) [(6)] (H-APFRMGIC(X1)TTN-OH; configuration not given here): in data set [1], the “Day 0 (purity)” value is given as 96.235% and the “High humidity, Day 10 (purity)” value amounted to 95.719%.

`CCC(C)C(NC(=O)CNC(=O)C(CCSC)NC(=O)C(CCCNC(=N)N)NC(=O)C(Cc1ccccc1)NC(=O)C1CCCN1C(=O)C(C)N)C(=O)NC(CSCC(=O)O)C(=O)NC(C(=O)NC(C(=O)NC(CC(N)=O)C(=O)O)C(C)O)C(C)O` (stereo not shown) [(7)] (H-APFRMGIC(Carboxymethyl)TTN-OH; configuration not given here): in data set [1], the “Day 0 (purity)” value is listed as 98.541% and the “High humidity, Day 10 (purity)” value stood at 97.863%.

Consider `C=CCSCC(NC(=O)C(NC(=O)CNC(=O)C(CCSC)NC(=O)C(CCCNC(=N)N)NC(=O)C(Cc1ccccc1)NC(=O)C1CCCN1C(=O)C(C)N)C(C)CC)C(=O)NC(C(=O)NC(C(=O)NC(CC(N)=O)C(=O)O)C(C)O)C(C)O` (stereo not shown) [Peptide (3)] (H-APFRMGIC(Allyl)TTN-OH; configuration not given here), for which the “impact on the activity of NIH3T3 cells compared among peptides (1)-(5)” value in the data set on NIH3T3 cells (12.5-100 ppm) is on record as “greater impact on the activity of NIH3T3 cells”. In addition, the “effect on the activity of NIH3T3 cells (MTT)” value with NIH3T3 cells (setting [7]) was “could improve the activity of NIH3T3 cells and promote their proliferation”. For the same compound, the “effect on improving activity of photodamaged HaCaT cells compared among peptides (1)-(5)” value in the data set on HaCaT cells [2] is “better effect on improving cell activity”. Moreover, the “impact on the activity of HaCaT cells compared among peptides (1)-(5)” value in the data set on HaCaT cells [3] (12.5-100 ppm) is “greater impact on the activity of HaCaT cells”. The “effect on the activity of HaCaT cells (MTT)” value in the data set on HaCaT cells [3] (setting [7]) was “could both improve the activity of HaCaT cells, promote their proliferation”. Moreover, in data set [1], the “Day 0 (purity)” value amounted to 97.605% and the “High humidity, Day 10 (purity)” value turned out to be 96.251%.

Consider “EGF: epidermal growth factor (EGF), 50 U/mL, positive group in the scratch test”, for which the “scratch spacing (proliferation and migration)” value in the data set with HaCaT cells [4] was “spacing was significantly shortened”.

Turning to “H-Ala-Pro-Phe-Arg-Met-Gly-Ile-Cys-Thr-Thr-Asn-OH (H-APFRMGICTTN-OH) [Reference peptide A]”, the “aqueous solution (purity)” value in data set [5] (Day 8 at room temperature) is 80.880%; in data set [5] (Day 18 at room temperature), 72.693%; in data set [5] (Day 18 at room temperature, listed as reference peptide A), 72.693%; in data set [5] (Solution, Day 0), 88.030%; in data set [5] (Solution, Day 0, listed as reference peptide A) it was “decreased significantly”. For the same compound, the “powder (purity)” value stood at 85.913% in data set [6] (25° C., Day 5); 57.503% in data set [6] (40° C., Day 5); 57.503% in data set [6] (40° C., Day 5, listed as reference peptide A); 88.030% in data set [6] (powder, Day 0).

Source of the values: US20240352069A1, “SYNTHETIC PEPTIDE, AND COSMETIC COMPOSITION OR PHARMACEUTICAL COMPOSITION AND APPLICATION THEREOF” (SHENZHEN WINKEY TECHNOLOGY CO., LTD., priority 2021, published 2024).
